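Five concentrations, 48 hours, 96-well plates. Abbreviation: GI50, concentration required for 50% inhibition of growth.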 Calls of active or inactive are those of the source. No stated cut-off is given here; in the data, active = GI50 up to about 1.1 µM and inactive = higher.
What was measured:
Assay in all cases: DTP human tumour cell line panel, 48 h
CAKI-1 = tested on: CAKI-1
HT-29 = tested on: HT-29
A498 = tested on: A498
MDA-N = tested on: MDA-N
MOLT-4 = tested on: MOLT-4
TK-10 = tested on: TK-10
MDA-MB-435 = tested on: MDA-MB-435
MCF7 = tested on: MCF7
OVCAR-5 = tested on: OVCAR-5
CCRF-CEM = tested on: CCRF-CEM
HCC 2998 = tested on: HCC 2998
Hs-578T = tested on: Hs-578T
IGROV-1 = tested on: IGROV-1
MDA-MB-231 = tested on: MDA-MB-231
ACHN = tested on: ACHN
SF-295 = tested on: SF-295
NCI-H23 = tested on: NCI-H23
M14 = tested on: M14
SK-MEL-5 = tested on: SK-MEL-5
U-251 = tested on: U-251

**Q.** O=C(CSc1nc2ccc(I)cc2c(=O)n1Cc1ccccc1)N/N=C/c1ccccc1 was tested. Which GI50 (CAKI-1) did it give?
**A.** The GI50 was 4.01 µM (inactive).

**Q.** And the GI50 (HT-29)?
**A.** The GI50 was 47.6 µM (inactive).

**Q.** What about the GI50 (A498) of the same compound?
**A.** The GI50 was 15.2 µM (inactive).

**Q.** And the GI50 (MDA-N)?
**A.** The GI50 was > 100 µM (inactive).

**Q.** And the GI50 (MOLT-4)?
**A.** Its GI50 is 58.1 µM (inactive).

**Q.** And the GI50 (TK-10)?
**A.** The GI50 was 15.2 µM (inactive).

**Q.** What about the GI50 (MDA-MB-435) of the same compound?
**A.** The GI50 was > 100 µM (inactive).

**Q.** What about the GI50 (MCF7) of the same compound?
**A.** Its GI50 is 25.2 µM (inactive).

**Q.** And the GI50 (OVCAR-5)?
**A.** The GI50 was 57 µM (inactive).

**Q.** What about the GI50 (CCRF-CEM) of the same compound?
**A.** The GI50 was 40.9 µM (inactive).

**Q.** What about the GI50 (HCC 2998) of the same compound?
**A.** The GI50 was 67.1 µM (inactive).

**Q.** And the GI50 (Hs-578T)?
**A.** Its GI50 is 1.01 µM (active).

**Q.** What about the GI50 (IGROV-1) of the same compound?
**A.** Its GI50 is 14.8 µM (inactive).

**Q.** What about the GI50 (MDA-MB-231) of the same compound?
**A.** The GI50 was 8.2 µM (inactive).

**Q.** And the GI50 (ACHN)?
**A.** The GI50 was 21.7 µM (inactive).

**Q.** And the GI50 (SF-295)?
**A.** Its GI50 is 11.4 µM (inactive).

**Q.** What about the GI50 (NCI-H23) of the same compound?
**A.** The GI50 was 17.5 µM (inactive).

**Q.** What about the GI50 (M14) of the same compound?
**A.** Its GI50 is 43.3 µM (inactive).

**Q.** What about the GI50 (SK-MEL-5) of the same compound?
**A.** The GI50 was 42.4 µM (inactive).

**Q.** What about the GI50 (U-251) of the same compound?
**A.** The GI50 was 11.4 µM (inactive).

**Q.** What does the source list for N#Cc1c(-c2ccccc2)cc(-c2ccc(Cl)cc2)[nH]c1=S?
**A.** GI50 (CAKI-1): 51.4 µM (inactive); GI50 (HT-29): 37 µM (inactive); GI50 (A498): 22.6 µM (inactive); GI50 (MDA-N): 34.5 µM (inactive); GI50 (MOLT-4): 28.1 µM (inactive); GI50 (TK-10): 45.9 µM (inactive); GI50 (MDA-MB-435): 14.3 µM (inactive); GI50 (MCF7): 23.4 µM (inactive); GI50 (OVCAR-5): 62.4 µM (inactive); GI50 (CCRF-CEM): 26.4 µM (inactive); GI50 (HCC 2998): 31.9 µM (inactive); GI50 (Hs-578T): 38.8 µM (inactive); GI50 (IGROV-1): 26.7 µM (inactive); GI50 (MDA-MB-231): 23.4 µM (inactive); GI50 (ACHN): 21.5 µM (inactive); GI50 (SF-295): 27.1 µM (inactive); GI50 (NCI-H23): 4.06 µM (inactive); GI50 (M14): 38.9 µM (inactive); GI50 (SK-MEL-5): 17.7 µM (inactive); GI50 (U-251): 21.3 µM (inactive)

**Q.** Which results are given for O=C1c2cc(-c3ccccc3)cnc2S(=O)(=O)N1c1ccc(Br)cc1?
**A.** GI50 (CAKI-1): 40.4 µM (inactive); GI50 (HT-29): > 100 µM (inactive); GI50 (A498): > 100 µM (inactive); GI50 (MDA-N): > 100 µM (inactive); GI50 (MOLT-4): 46.3 µM (inactive); GI50 (TK-10): > 100 µM (inactive); GI50 (MDA-MB-435): > 100 µM (inactive); GI50 (MCF7): > 100 µM (inactive); GI50 (OVCAR-5): 40.8 µM (inactive); GI50 (CCRF-CEM): 24.9 µM (inactive); GI50 (HCC 2998): 17.8 µM (inactive); GI50 (Hs-578T): 20 µM (inactive); GI50 (IGROV-1): 46.2 µM (inactive); GI50 (MDA-MB-231): 52.2 µM (inactive); GI50 (ACHN): > 100 µM (inactive); GI50 (SF-295): 20 µM (inactive); GI50 (NCI-H23): 63.1 µM (inactive); GI50 (M14): 76.9 µM (inactive); GI50 (SK-MEL-5): 70 µM (inactive); GI50 (U-251): 30.1 µM (inactive)

**Q.** N#Cc1c(/C=C/c2ccccc2)c2c([nH]c1=S)CCCCC2 was tested. Which GI50 (CAKI-1) did it give?
**A.** Its GI50 is > 100 µM (inactive).

**Q.** And the GI50 (HT-29)?
**A.** Its GI50 is > 100 µM (inactive).

**Q.** What about the GI50 (A498) of the same compound?
**A.** The GI50 was > 100 µM (inactive).

**Q.** And the GI50 (MDA-N)?
**A.** Its GI50 is > 100 µM (inactive).

**Q.** What about the GI50 (MOLT-4) of the same compound?
**A.** The GI50 was > 100 µM (inactive).

**Q.** What about the GI50 (TK-10) of the same compound?
**A.** Its GI50 is > 100 µM (inactive).

**Q.** And the GI50 (MDA-MB-435)?
**A.** The GI50 was > 100 µM (inactive).

**Q.** What about the GI50 (MCF7) of the same compound?
**A.** The GI50 was > 100 µM (inactive).

**Q.** What about the GI50 (OVCAR-5) of the same compound?
**A.** The GI50 was > 100 µM (inactive).

**Q.** What about the GI50 (CCRF-CEM) of the same compound?
**A.** Its GI50 is > 100 µM (inactive).

**Q.** What about the GI50 (HCC 2998) of the same compound?
**A.** Its GI50 is > 100 µM (inactive).

**Q.** What about the GI50 (Hs-578T) of the same compound?
**A.** Its GI50 is > 100 µM (inactive).

**Q.** What about the GI50 (IGROV-1) of the same compound?
**A.** The GI50 was > 100 µM (inactive).

**Q.** What about the GI50 (MDA-MB-231) of the same compound?
**A.** Its GI50 is > 100 µM (inactive).

**Q.** And the GI50 (ACHN)?
**A.** The GI50 was > 100 µM (inactive).

**Q.** And the GI50 (SF-295)?
**A.** The GI50 was > 100 µM (inactive).

**Q.** What about the GI50 (NCI-H23) of the same compound?
**A.** Its GI50 is > 100 µM (inactive).

**Q.** And the GI50 (M14)?
**A.** Its GI50 is > 100 µM (inactive).

**Q.** And the GI50 (SK-MEL-5)?
**A.** Its GI50 is > 100 µM (inactive).

**Q.** And the GI50 (U-251)?
**A.** The GI50 was 82.2 µM (inactive).

**Q.** For COc1cc(C2SCC(=O)N2c2ccc(-c3ccc(-n4c(-c5ccccc5)nc5ccccc5c4=O)cc3)cc2)ccc1O (stereo not given), which GI50 (CAKI-1) is on record?
**A.** The GI50 was > 100 µM (inactive).

**Q.** What about the GI50 (HT-29) of the same compound?
**A.** Its GI50 is 39.2 µM (inactive).

**Q.** What about the GI50 (A498) of the same compound?
**A.** Its GI50 is > 100 µM (inactive).

**Q.** What about the GI50 (MDA-N) of the same compound?
**A.** Its GI50 is 80 µM (inactive).

**Q.** And the GI50 (MOLT-4)?
**A.** Its GI50 is 37 µM (inactive).

**Q.** And the GI50 (TK-10)?
**A.** Its GI50 is > 100 µM (inactive).

**Q.** What about the GI50 (MDA-MB-435) of the same compound?
**A.** Its GI50 is 74.1 µM (inactive).

**Q.** And the GI50 (MCF7)?
**A.** Its GI50 is 59.4 µM (inactive).

**Q.** What about the GI50 (OVCAR-5) of the same compound?
**A.** The GI50 was 48.3 µM (inactive).

**Q.** And the GI50 (CCRF-CEM)?
**A.** The GI50 was 42.4 µM (inactive).

**Q.** And the GI50 (HCC 2998)?
**A.** Its GI50 is 82.2 µM (inactive).

**Q.** And the GI50 (Hs-578T)?
**A.** Its GI50 is 40.1 µM (inactive).

**Q.** And the GI50 (IGROV-1)?
**A.** Its GI50 is > 100 µM (inactive).

**Q.** And the GI50 (MDA-MB-231)?
**A.** The GI50 was > 100 µM (inactive).

**Q.** What about the GI50 (ACHN) of the same compound?
**A.** The GI50 was > 100 µM (inactive).

**Q.** And the GI50 (SF-295)?
**A.** Its GI50 is > 100 µM (inactive).

**Q.** And the GI50 (NCI-H23)?
**A.** The GI50 was > 100 µM (inactive).

**Q.** And the GI50 (M14)?
**A.** The GI50 was > 100 µM (inactive).

**Q.** And the GI50 (SK-MEL-5)?
**A.** Its GI50 is 26.7 µM (inactive).

**Q.** And the GI50 (U-251)?
**A.** The GI50 was 44.2 µM (inactive).
